Format in all cases: functional
The nature of assay [1]: Local anaesthetic activity in rat sciatic nerve assessed as time required to decrease compound action potential to 50 %.
Assay [2] can be described thus: Local anaesthetic activity in rat sciatic nerve assessed as time required to decrease compound action potential to 100 %.
The nature of assay [3]: Local anaesthetic activity in rat sciatic nerve assessed as time required to decrease compound action potential to 50 % relative to Lidocaine. Further details: scale not given: the % may be the effect or the level left.
A short description of assay [4]: Local anaesthetic activity in rat sciatic nerve assessed as time required to decrease compound action potential to 100 % relative to Lidocaine. Further details: scale not given: the % may be the effect or the level left.
The nature of assay [5]: Local anaesthetic activity in rat sciatic nerve assessed as vitality time.
Assay [6] can be described thus: Local anaesthetic activity in rat sciatic nerve assessed as time required to decrease compound action potential to recover to 50 %.
Assay [7] in a line: Local anaesthetic activity in rat sciatic nerve assessed as time required to decrease compound action potential to recover to 50 % at 1.5%.
A short description of assay [8]: Local anaesthetic activity in rat sciatic nerve assessed as time required to decrease compound action potential to 100 % at 1.5% relative to Lidocaine. Further details: scale not given: the % may be the effect or the level left.
Assay [9] is described as follows: Local anaesthetic activity in rat sciatic nerve assessed as time required to decrease compound action potential to 100 % at 1.5%.
The nature of assay [10]: Local anaesthetic activity in rat sciatic nerve assessed as time required to decrease compound action potential to 50 % at 1.5% relative to Lidocaine. Further details: scale not given: the % may be the effect or the level left.
Assay [11] can be described thus: Local anaesthetic activity in rat sciatic nerve assessed as vitality time at 1.5%.
Assay [12] in a line: Local anaesthetic activity in rat sciatic nerve assessed as time required to decrease compound action potential to 50 % at 1.5%.

SMILES strings stand for the structures.

Take `CCCNCC(=O)Nc1nsc2ccccc12`: the IT50 in assay [1] was determined as 10 min. In addition, the IT100 in [2] was determined as 17.5 min. Further, the figures for the Activity in assay [3] and in assay [4] were 31.4% and 80%, respectively. In addition, the VT50 in [5] is given as 250 min. Also, the RT50 in [6] came out at 200 min.
For `CC(C(=O)Nc1nsc2ccccc12)N1CCCC1` (centres undefined), the IT50 in assay [1] is listed as 7.7 min. Further, in [2], the IT100 was determined as 11.6 min. Moreover, the Activity in assay [3] is given as 40.8%; in assay [4], 120.7%. In addition, the VT50 in [5] is on record as 600 min. Further, in assay [6], the RT50 is reported as 135 min.
For `O=C(CN1CCCCC1)Nc1nsc2ccccc12`, the RT50 was 141.2 min in assay [7] and 142.7 min in assay [6]. Besides, the IT50 in assay [1] stood at 7 min; in [12], 8.05 min. The Activity in [8] was determined as 59.8%; in assay [3], 44.9%; in assay [10] it was 39%; in assay [4], 87.5%. The IT100 in assay [9] was 23.4 min; in assay [2] it was 16 min. The VT50 in assay [5] is reported as 500 min; in assay [11] it was 555.8 min.
With `O=C(CCN1CCCC1)Nc1nsc2ccccc12`, the IT50 in [1] is on record as 10 min. For the same compound, in assay [2], the IT100 was determined as 20.4 min. Moreover, the values for the Activity in assay [3] and in assay [4] were 31.4% and 68.6%, respectively. Also, the VT50 in assay [5] is on record as 870 min. Moreover, the RT50 in [6] came out at 136.6 min.
On to `CCNCC(=O)Nc1nsc2ccccc12`, for which the RT50 in assay [7] turned out to be 135 min; in assay [6], 76 min. In addition, the IT50 in [1] is 5 min; in [12], 11.5 min. The Activity in [8] was found to be 28.1%; in assay [3] it was 62.8%; in [10] it was 27.3%; in [4], 57.9%. In addition, the values for the IT100 in [9] and in assay [2] were 49.9 min and 24.2 min, respectively. Moreover, the VT50 turned out to be 600 min in assay [5] and 658 min in [11].
On to `CNCC(=O)Nc1nsc2ccccc12`, for which, in [1], the IT50 is 10 min. For the same compound, in [2], the IT100 amounted to 34 min. Also, the Activity was 31.4% in assay [3] and 41.2% in assay [4]. In addition, in [5], the VT50 is 786 min. Moreover, in assay [6], the RT50 was found to be 48 min.
As to `Cc1ccc2snc(NC(=O)C(C)N3CCCC3)c2c1` (centres undefined), the IT50 in [1] is reported as 1.75 min. Further, the IT100 in [2] was 17.5 min. In addition, the results for the Activity in [3] and in assay [4] were 179% and 80%, respectively. Further, in assay [5], the VT50 was 498 min. Further, in assay [6], the RT50 was determined as 122 min.
On to `CCCNC(C)C(=O)Nc1nsc2ccccc12` (centres undefined), for which the IT50 in [1] is on record as 5.3 min. In [2], the IT100 is 24.1 min. Besides, the Activity in [3] amounted to 31.4%; in [4] it was 70%. Moreover, the VT50 in [5] came to 750 min. For the same compound, the RT50 in assay [6] amounted to 88.9 min.
With `CCN(CC)CC(=O)Nc1c(C)cccc1C` [LIDOCAINE], the IT50 in [1] is reported as 3.14 min. The IT100 in assay [2] amounted to 14 min. In addition, the Activity in assay [3] and in assay [4] was 100% in each case. Besides, the VT50 in assay [5] turned out to be 660 min. Also, in assay [6], the RT50 is recorded as 48.75 min.
As for `CCN(CC)CC(=O)Nc1nsc2ccccc12`, the RT50 in assay [7] is listed as 121.5 min. Moreover, the figures for the Activity in assay [8] and in [10] were 26% and 26.2%, respectively. Also, the IT100 in assay [9] turned out to be 53.9 min. The VT50 in assay [11] was 600 min. Further, the IT50 in assay [12] is listed as 12 min.
Turning to `CCNC(C)C(=O)Nc1nsc2ccccc12` (centres undefined), the IT50 in [1] is given as 4.2 min. In assay [2], the IT100 is recorded as 12.9 min. Also, the Activity was 74.8% in assay [3] and 108.5% in assay [4]. Moreover, the VT50 in assay [5] is 861 min. Also, in [6], the RT50 turned out to be 100 min.
Take `CCN(CC)C(C)C(=O)Nc1nsc2ccccc12` (centres undefined): the IT50 in assay [1] came to 3.85 min. The IT100 in assay [2] turned out to be 14.1 min. Moreover, the Activity in assay [3] is 49.8%; in assay [4], 84.8%. Moreover, the VT50 in assay [5] was found to be 404.2 min. The RT50 in [6] came to 57.7 min.
`CC(C)NCC(=O)Nc1nsc2ccccc12`: the IT50 in assay [1] came to 12.13 min. Moreover, in assay [2], the IT100 was determined as 30.2 min. In addition, the Activity in [3] was found to be 25.9%; in assay [4], 46.4%. Also, the RT50 in assay [6] was 150 min.
For the compound `CC(C(=O)Nc1nsc2ccccc12)N(C)C` (centres undefined), the IT50 in assay [1] amounted to 7.4 min. Further, in assay [2], the IT100 was 14 min. Also, the Activity in assay [3] turned out to be 18.8%; in [4], 70%. Besides, the VT50 in [5] turned out to be 690 min. Besides, the RT50 in [6] amounted to 77 min.
As to `O=C(CCN1CCOCC1)Nc1nsc2ccccc12`, the IT50 in assay [1] is reported as 7 min. Besides, in assay [2], the IT100 worked out at 17.9 min. Further, the Activity in assay [3] is given as 44.9%; in [4], 78.2%. The RT50 in assay [6] is on record as 86 min.
As for `CC(C(=O)Nc1nsc2ccccc12)N1CCOCC1` (centres undefined), in assay [1], the IT50 worked out at 11.8 min. For the same compound, in assay [2], the IT100 stood at 23 min. In addition, the results for the Activity in assay [3] and in [4] were 26.6% and 60.9%, respectively. In [5], the VT50 was 350 min. Besides, the RT50 in assay [6] is on record as 126 min.
Regarding `Cc1ccc2snc(NC(=O)C(C)N(C)C)c2c1` (centres undefined), the IT50 in assay [1] was determined as 11.6 min. The IT100 in assay [2] stood at 23.75 min. The values for the Activity in [3] and in assay [4] were 25.7% and 75.7%, respectively. In addition, in [5], the VT50 amounted to 1012 min. Also, the RT50 in [6] worked out at 162 min.
As to `CN(C)CC(=O)Nc1nsc2ccccc12`, in assay [1], the IT50 was 10.5 min. For the same compound, in assay [3], the Activity stood at 29.9%. In assay [5], the VT50 turned out to be 250 min. Besides, in assay [6], the RT50 stood at 100 min.
On to `Cc1ccc2snc(NC(=O)C(C)N3CCCCC3)c2c1` (centres undefined), for which the IT50 in [1] was 11 min. Further, the IT100 in assay [2] is 37 min. Also, the results for the Activity in [3] and in assay [4] were 28.5% and 37.8%, respectively.
As to `CNC(C)C(=O)Nc1nsc2ccccc12` (centres undefined), the IT50 in assay [1] came to 12.8 min. Besides, the IT100 in assay [2] was found to be 26.7 min. Moreover, the Activity in assay [3] is 24.5%; in assay [4], 121.7%. Besides, in assay [5], the VT50 is 450 min. For the same compound, the RT50 in [6] was determined as 68 min.
In the case of `CNC(C)C(=O)Nc1nsc2ccc(C)cc12` (centres undefined), the IT50 in [1] is given as 6.6 min. Further, the IT100 in assay [2] came to 20 min. The figures for the Activity in assay [3] and in assay [4] were 47.6% and 70%, respectively. Also, the VT50 in assay [5] is on record as 780 min. In addition, in [6], the RT50 is listed as 60 min.
For the compound `CNCCC(=O)Nc1nsc2ccccc12`, the IT50 in assay [1] is recorded as 10.75 min. In addition, in assay [2], the IT100 was determined as 20.5 min. The figures for the Activity in assay [3] and in assay [4] were 29.2% and 68.3%, respectively. Moreover, in [5], the VT50 turned out to be 839 min. Further, in assay [6], the RT50 is reported as 136 min.
In the case of `CCCNC(C)C(=O)Nc1nsc2ccc(C)cc12` (centres undefined), the IT50 in assay [1] is recorded as 7.4 min. In addition, the IT100 in assay [2] was determined as 14.8 min. Besides, the values for the Activity in assay [3] and in assay [4] were 23.6% and 65.1%, respectively. In assay [5], the VT50 worked out at 365 min.
Consider `CCNC(C)C(=O)Nc1nsc2ccc(C)cc12` (centres undefined), for which the IT50 in [1] amounted to 4.2 min. The IT100 in assay [2] is recorded as 12.9 min. Also, the Activity stood at 74.8% in assay [3] and 108.5% in [4]. Moreover, in assay [5], the VT50 is listed as 702 min. Further, the RT50 in assay [6] was determined as 100 min.
Consider `CC(C(=O)Nc1nsc2ccccc12)N1CCCCC1` (centres undefined), for which the IT50 in assay [1] is reported as 8.9 min. In addition, the IT100 in assay [2] is listed as 20.9 min. Also, the Activity in [3] came out at 21.7%; in assay [4], 73.7%. Besides, the VT50 in [5] was 500 min. Besides, the RT50 in [6] was determined as 58 min.
For `O=C(CN1CCC(c2ccccc2)CC1)Nc1nsc2ccccc12`, the IT50 in assay [1] was found to be 18.5 min. The Activity in [3] is listed as 17%.
As to `CC(NC1CCCCC1)C(=O)Nc1nsc2ccccc12` (centres undefined), the IT50 in [1] was 5.8 min. In assay [2], the IT100 worked out at 25.3 min. In addition, the Activity in [3] is listed as 44.9%; in assay [4], 63.6%. In assay [6], the RT50 turned out to be 52.3 min.
With `CC1CCN(CC(=O)Nc2nsc3ccccc23)CC1`, the IT50 in assay [1] is 25.5 min. Also, the IT100 in [2] is 37.45 min. The Activity in assay [3] worked out at 12.3%; in assay [4], 37.4%. Further, the VT50 in assay [5] was 930 min. In assay [6], the RT50 was found to be 122 min.
In the case of `Cc1ccc2snc(NC(=O)C(C)N3CCOCC3)c2c1` (centres undefined), the IT50 in assay [1] was 2.23 min. For the same compound, in assay [2], the IT100 was 20 min. Also, the Activity in assay [3] is 140.8%; in assay [4], 70%. The VT50 in [5] was 738 min. Also, the RT50 in [6] stood at 60 min.
On to `CCNCCC(=O)Nc1nsc2ccccc12`, for which, in assay [1], the IT50 worked out at 26.1 min. In assay [2], the IT100 worked out at 79.5 min. For the same compound, the Activity in assay [3] is listed as 12%; in assay [4], 17.6%. The VT50 in assay [5] worked out at 400.8 min. In assay [6], the RT50 came to 154.8 min.
For the compound `Cc1ccc2snc(NC(=O)C(C)NC3CCCCC3)c2c1` (centres undefined), in [1], the IT50 is 39 min. Also, in assay [2], the IT100 amounted to 42.5 min. The Activity in assay [3] is 8.1%; in assay [4], 32.9%.

(Values after ChEMBL document CHEMBL1153863, “Evaluation of the local anaesthetic activity of 3-aminobenzo[d]isothiazole derivatives using the rat sciatic nerve model” (2009).)
